pIC50: −log10 of the molar value.
Target: T1, TLR9 (Homo sapiens, UniProt Q9NR96)
T1 sequence (Q9NR96 26-1032): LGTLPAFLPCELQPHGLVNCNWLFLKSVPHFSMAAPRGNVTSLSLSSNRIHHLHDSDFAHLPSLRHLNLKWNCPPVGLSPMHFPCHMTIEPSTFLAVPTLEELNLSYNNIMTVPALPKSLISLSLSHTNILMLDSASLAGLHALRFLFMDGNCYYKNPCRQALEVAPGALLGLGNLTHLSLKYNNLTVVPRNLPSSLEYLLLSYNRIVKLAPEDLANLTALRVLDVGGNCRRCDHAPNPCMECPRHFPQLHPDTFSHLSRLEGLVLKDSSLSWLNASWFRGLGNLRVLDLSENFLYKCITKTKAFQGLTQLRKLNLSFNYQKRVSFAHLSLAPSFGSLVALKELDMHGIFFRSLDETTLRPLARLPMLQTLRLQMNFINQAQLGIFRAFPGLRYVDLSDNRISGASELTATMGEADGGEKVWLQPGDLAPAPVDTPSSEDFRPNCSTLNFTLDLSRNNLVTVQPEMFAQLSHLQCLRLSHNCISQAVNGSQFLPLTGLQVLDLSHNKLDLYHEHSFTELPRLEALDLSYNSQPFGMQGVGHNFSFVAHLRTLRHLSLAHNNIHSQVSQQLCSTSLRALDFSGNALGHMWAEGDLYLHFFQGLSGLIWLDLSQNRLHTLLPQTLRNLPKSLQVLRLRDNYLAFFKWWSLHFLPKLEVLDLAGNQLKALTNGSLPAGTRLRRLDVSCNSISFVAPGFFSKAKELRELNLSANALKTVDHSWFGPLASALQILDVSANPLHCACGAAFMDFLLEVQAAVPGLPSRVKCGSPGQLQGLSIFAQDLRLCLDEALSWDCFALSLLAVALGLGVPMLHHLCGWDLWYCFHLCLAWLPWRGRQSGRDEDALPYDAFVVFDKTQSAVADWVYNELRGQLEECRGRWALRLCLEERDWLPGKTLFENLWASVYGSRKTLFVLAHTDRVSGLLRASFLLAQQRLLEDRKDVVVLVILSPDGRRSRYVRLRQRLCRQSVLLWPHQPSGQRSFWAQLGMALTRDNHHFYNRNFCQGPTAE
Assay: HEK293-Blue-hTLR-9 cells assay (SEAP reporter, ODN2006 stimulation)
Format: cell-based
Design: host or cells: HEK293 (HEK-Blue hTLR9)
Settings: HEK293-Blue-hTLR9 cells, ODN2006, 20 hrs; read-out: HEK/hTLR9 IC50
Description: The following tests were carried out in order to determine the activity of the compounds of formula (I) and (Ia) in HEK293-Blue-hTLR-7/8/9 cells assay.
A stable HEK293-Blue-hTLR-9 cell line was purchased from InvivoGen (Cat. #: hkb-htlr9, San Diego, California, USA). These cells were originally designed for studying the stimulation of human TLR9 by monitoring the activation of NF-κB. A SEAP (secreted embryonic alkaline phosphatase) reporter gene was placed under the control of the IFN-β minimal promoter fused to five NF-κB and AP-1-binding sites. The SEAP was induced by activating NF-κB and AP-1 via stimulating HEK-Blue hTLR9 cells with TLR9 ligands. Therefore the reporter expression was declined by TLR9 antagonist under the stimulation of a ligand, such as ODN2006 (Cat. #: tlrl-2006-1, Invivogen, San Diego, California, USA), for incubation of 20 hrs. The cell culture supernatant SEAP reporter activity was determined using QUANTI-Blue™ kit (Cat. #: rep-qb1, Invivogen, San Diego, California, USA) at a wavelength of 640 nm, a detection medium that turns purple or blue in the presence of alkaline phosphatase.
HEK293-Blue-hTLR9 cells were incubated at a density of 250,000-450,000 cells/mL in a volume of 170 μL in a 96-well plate in Dulbecco's Modified Eagle's medium (DMEM) containing 4.5 g/L glucose, 50 U/mL penicillin, […], […], 2 mM L-glutamine, 10% (v/v) heat-inactivated fetal bovine serum with addition of 20 μL test compound in a serial dilution in the presence of final DMSO at 1% and 10 μL of 20 uM ODN2006 in above DMEM, perform incubation under 37° C. in a CO2 incubator for 20 hrs. Then 20 μL of the supernatant from each well was incubated with 180 μL Quanti-blue substrate solution at 37° C. for 2 h and the absorbance was read at 620˜655 nm using a spectrophotometer.
The signaling pathway that TLR9 activation leads to downstream NF-κB activation has been widely accepted, and therefore similar reporter assay was modified for evaluating TLR9 antagonist.

pIC50 | Compound
6.43 | C[C@H]1CN(c2ccnc3c2cnn3C)Cc2ccc(N3CC4(CNCCO4)C3)cc21 [Example 21, 2-[(4R)-4-methyl-2-(1-methylpyrazolo[3,4-b]pyridin-4-yl)-3,4-dihydro-1H-isoquinolin-6-yl]-5-oxa-2,8-diazaspiro[3.5]nonane]
6.94 | CO[C@@H]1CN(c2ccc3c(c2)[C@@H](C)CN(c2cc(C)nc4c2cnn4C)C3)C[C@H]1N [Example 23, (3R,4R)-4-methoxy-1-[(4R)-2-(1,6-dimethylpyrazolo[3,4-b]pyridin-4-yl)-4-methyl-3,4-dihydro-1H-isoquinolin-6-yl]pyrrolidin-3-amine]
6.54 | C[C@H]1CN(c2ccnc3c2cnn3C)Cc2ccc(N3C[C@@H]4CNCCN4C3=O)cc21 [Example 25, (8aS)-2-[(4R)-4-methyl-2-(1-methylpyrazolo[3,4-b]pyridin-4-yl)-3,4-dihydro-1H-isoquinolin-6-yl]-1,5,6,7,8,8a-hexahydroimidazo[1,5-a]pyrazin-3-one]
6.82 | C[C@H]1CN(c2ccnc3c2cnn3C)Cc2ccc(N3CCC(N4CC(N)C4)CC3)cc21 [Example 28, 1-[1-[(4R)-4-methyl-2-(1-methylpyrazolo[3,4-b]pyridin-4-yl)-3,4-dihydro-1H-isoquinolin-6-yl]-4-piperidyl]azetidin-3-amine]
6.97 | C[C@H]1CN(c2ccnc3c2cnn3C)Cc2ccc(N3CCC(N4CC[C@@H](N)[C@H](O)C4)CC3)cc21 [Example 29, trans-4-amino-1-[1-[(4R)-4-methyl-2-(1-methylpyrazolo[3,4-b]pyridin-4-yl)-3,4-dihydro-1H-isoquinolin-6-yl]-4-piperidyl]piperidin-3-ol]
7.06 | Cc1cc(N2Cc3ccc(OC[C@H]4CNCCN4)cc3[C@@H](C)C2)c2cnn(C)c2n1 [Example 30, (4R)-2-(1,6-dimethylpyrazolo[3,4-b]pyridin-4-yl)-4-methyl-6-[[(2R)-piperazin-2-yl]methoxy]-3,4-dihydro-1H-isoquinoline]
6.98 | Cc1cc(N2Cc3ccc(OC[C@@H]4CNCCN4)cc3[C@@H](C)C2)c2cnn(C)c2n1 [Example 31, (4R)-2-(1,6-dimethylpyrazolo[3,4-b]pyridin-4-yl)-4-methyl-6-[[(2S)-piperazin-2-yl]methoxy]-3,4-dihydro-1H-isoquinoline]

The next lines start with the compound.

Compound | pIC50
CO[C@@H]1CN(c2ccc3c(c2)[C@@H](C)CN(c2ccnc4c2cnn4C)C3)C[C@H]1N [Example 20, (3R,4R)-4-methoxy-1-[(4R)-4-methyl-2-(1-methylpyrazolo[3,4-b]pyridin-4-yl)-3,4-dihydro-1H-isoquinolin-6-yl]pyrrolidin-3-amine] | 6.62
CCn1ncc2c(N3Cc4ccc(N5CCNCC5)cc4[C@@H](C)C3)ccnc21 [Example 22, (4R)-2-(1-ethylpyrazolo[3,4-b]pyridin-4-yl)-4-methyl-6-piperazin-1-yl-3,4-dihydro-1H-isoquinoline] | 6.39
C[C@H]1CN(c2ccnc3c2cnn3C)Cc2ccc(N3C[C@H]4CNCCN4C3=O)cc21 [Example 24, (8aR)-2-[(4R)-4-methyl-2-(1-methylpyrazolo[3,4-b]pyridin-4-yl)-3,4-dihydro-1H-isoquinolin-6-yl]-1,5,6,7,8,8a-hexahydroimidazo[1,5-a]pyrazin-3-one] | 6.51
C[C@H]1CN(c2ccnc3c2cnn3C)Cc2ccc(N3CC4(CCNCC4)OC3=O)cc21 [Example 26, 3-[(4R)-4-methyl-2-(1-methylpyrazolo[3,4-b]pyridin-4-yl)-3,4-dihydro-1H-isoquinolin-6-yl]-1-oxa-3,8-diazaspiro[4.5]decan-2-one] | 7.14
C[C@H]1CN(c2ccnc3c2cnn3C)Cc2ccc(N3C4CCC3CNC4)cc21 [Example 27, (4R)-6-(3,8-diazabicyclo[3.2.1]octan-8-yl)-4-methyl-2-(1-methylpyrazolo[3,4-b]pyridin-4-yl)-3,4-dihydro-1H-isoquinoline] | 6.73
